According to US20170196821A1, “Method of Inhibiting Mucin Secretion” (Reckitt Benckiser LLC, priority 2009, published 2017):
Entries after “also recorded” stand apart in the source; their conditions may differ.

Columns and labels:
[1] = test system: EpiAirway cultures (normal human bronchial epithelial) cells; test: Viability: metabolic activity by Water Soluble Tetrazolium (WST) assay; type: cell-based; conditions: 1 or 6 hr treatment
Procedure: EpiAirway cultures (normal human bronchial epithelial) cells grown on Millipore Transwells, 1 or 4.2 cm^2 surface area. The cells were purchased from MatTek, and were cultured at air-liquid interface for two (mucus synthesis and secretion) or three (mucociliary transport and mucus rheology) weeks prior to use.
The apical surfaces of the cultures were then washed with PBS and the metabolic activity, an indicator of viability, was measured using the Water Soluble Tetrazolium (WST) assay (Boehringer).
Metabolic activity was assessed using the WST assay, separately added to the apical or basal surfaces of the cultures.

MUC5AC mucins = test: MUC5AC mucin secretion and production by ELISA in EpiAirway (NHBE) cultures at air/liquid interface; type: cell-based, human
Procedure: EpiAirway cultures (normal human bronchial epithelial) cells grown on Millipore Transwells, 1 or 4.2 cm^2 surface area. The cells were purchased from MatTek, and were cultured at air-liquid interface for two (mucus synthesis and secretion) or three (mucociliary transport and mucus rheology) weeks prior to use. GUAIFENESIN solutions were prepared by dissolving in PBS (phosphate buffered saline) immediately before treatment of the cells. MUCSAC mucins were quantified by ELISA using 45M1 antibody (Labvision, Fremont, Calif.). Confluent 1 cm^2 NHBE cells grown on an air/liquid interface were washed from the apical surface with 200 μL PBS and incubated with fresh complete growth medium added to the basal chamber. Cultures were incubated 24 hours to collect the apical fluid (pretreatment sample or PT) by adding 100 μL PBS to the apical surface of the cultures. PBS was added to dilute the highly viscous, thin mucus layer on the surface. Because of the small size of the insert, it was not feasible to collect a sufficient amount of mucus for both pharmacology and rheology without the addition of PBS. After collecting 100 μL of the diluted mucus samples (PT), cultures were divided into three groups (6 hr, 24 hr and 48 hr), 16 inserts per group, and treated with varying concentrations of guaifenesin (0, 0.2, 2, 20 μg/mL) for each time group, 4 inserts per each dose. Thus, a total of 48 inserts were used for this study (4 inserts/dose×4 doses/time point×3 time points). The apical fluid was collected at 30 minutes following drug treatment from all the cultures to see whether guaifenesin affects the “secretion” of mucins. The apical mucus sample was collected in two steps—first by adding 100 μL PBS to the apical surface (1st wash) and then by adding 100 μL PBS containing 5 mM dithiothreitol (DTT) (2nd wash). Samples from each wash were assayed for MUC5AC content and the sum of the two values (the 1st and 2nd wash) was expressed as the “released MUC5AC” of the culture. At the three different time points (i.e., 6, 24, and 48 hr), cultures were washed to collect the apical fluid as described above (“released mucin”) and lysed using a lysis buffer (PBS, pH 7.2, […], 2 mM EDTA, 1 mM PSMF and 5 mM DTT) (“cellular mucin”). The amount of mucin in each sample (either secreted, released or cell lysate) was divided by the amount of mucin in the PT sample collected from the same well in order to obtain a “secretory index” to compensate for the variations among the cultures. The treatment protocol is depicted in FIG. 1. For mucin secretion, differences between control and guaifenesin treatment groups were assessed by comparing the means using Student's t-test for unpaired samples and p<0.05 was considered significant. All the values in the figures represent means ±SEM of 4 cultures unless otherwise stated. *p<0.05, **p<0.01

apical mucus secretions = test: Rheologic measurements of apical mucus secretions from EpiAirway cultures; type: cell-based, human
Procedure: EpiAirway cultures (normal human bronchial epithelial) cells grown on Millipore Transwells, 1 or 4.2 cm^2 surface area. The cells were purchased from MatTek, and were cultured at air-liquid interface for two (mucus synthesis and secretion) or three (mucociliary transport and mucus rheology) weeks prior to use. Following the analysis of clearance, mucus was harvested from the apical surface of the cultures, without dilution. The rheological properties of apical mucus secretions (20 μL) were measured using an AR1000 controlled stress rheometer (TA Instruments, New Castle, Del.) using a parallel plate geometry. The dynamic linear viscoelastic behavior was determined from the strain response to an oscillating stress and reported as a storage or elastic modulus (G′), and loss or viscous (G″) modulus, as a function of frequency ω such that viscosity, η′=G″/ω. Rheologic data can also be presented using vectorial notation as tangent δ which is the ratio of viscosity to elasticity and G*, the vector sum of viscosity and elasticity (mechanical impedance). When stress in the linear range is used to evaluate the materials, the material properties are independent of stress. In order to conduct a frequency sweep from 0.1 to 1000 rad/s, viscoelasticity was evaluated using a creep test at 0.5 Pa for 2 minutes. The strain response was fitted to a discrete relaxation spectrum, transformed to the retardation spectrum, and then to the storage and loss moduli, as a function of frequency, using methods developed by the PI. The linear viscoelasticity was evaluated at 1 and 100 rad/s and an oscillatory stress sweep and steady shear flow experiments were used to evaluate the behavior in the non-linear ranges. The oscillatory sweep data were analyzed by observing the stress where G′ and G″ crossed. […] All rheologic measurements were made by technicians who were blinded to the treatment group origin. For rheology experiments, data were analyzed using the StatView™ 5 statistics package. Raw data were visually confirmed to be normally distributed about the mean. […]

[2] = test system: EpiAirway cultures (normal human bronchial epithelial) cells; test: Mucociliary clearance: rate of movement of endogenous cell debris on EpiAirway cultures; type: cell-based
Procedure: EpiAirway cultures (normal human bronchial epithelial) cells grown on Millipore Transwells, 1 or 4.2 cm^2 surface area. The cells were purchased from MatTek, and were cultured at air-liquid interface for two (mucus synthesis and secretion) or three (mucociliary transport and mucus rheology) weeks prior to use. For mucociliary clearance, a stock guaifenesin solution of 2 mg/mL in culture medium was prepared in the morning of each experiment and kept cold until dilution into warmed medium to the target concentrations of 0.2, 2, 20 or 200 μg/mL. The medium in the basolateral compartment of each culture was replaced with the GGE-containing medium, and the cultures were returned to the 37° C., 5% CO2 incubator for as the times indicated. The experiments were repeated three times on independent cultures. Cultures (4.2 cm^2) were exposed to basolateral guaifenesin for 1 or 6 hr. […] The rate of movement of endogenous cell debris was analyzed on the video images using a transparent template overlay on the video images and a stopwatch to measure at least 5 particles on each culture, for a total of between 30 and 45 measurements per condition. For mucociliary clearance, differences between control and guaifenesin treatment groups were assessed by comparing the means using ANOVA, with a Bonferroni post-test to assess differences from the controls tested at the same time after treatment. […]

[3] = 24 hour treatment, 2 μg/mL or 20 μg/mL

Structure (SMILES): COc1ccccc1OCC(O)CO (centres unmarked) [guaifenesin, 3-(2-methoxyphenoxy)-1,2-propanediol]
- viability of the cells (WST assay) [1]: no adverse effect on the viability
- metabolic activity (WST assay) ([1]; did not reach statistical significance): trend to increased metabolic activity
- secreted MUC5AC versus control (MUC5AC mucins; 30 min treatment, 0.2, 2, 20 μg/mL): no significant difference
- total amounts of mucins produced (MUC5AC mucins; 6 hour treatment, 2 μg/ml and 20 μg/ml): significantly (p<0.01) suppressed; also recorded: suppressed the production of mucins
- amounts of mucins released (MUC5AC mucins; 6 hours treatment, NHBE cells): did not affect
- mucin production (MUC5AC mucins; [3]): significantly suppressed; also recorded: suppressed the production of mucins
- mucin release (MUC5AC mucins; [3]): significantly suppressed; also recorded: significant (p<0.05) decrease in mucin release
- amount of mucin released (MUC5AC mucins; 48 hours treatment): did not seem to be significantly affected
- production of mucins (MUC5AC mucins; 48 hours treatment, 2 μg/mL and 20 μg/mL): significantly (p<0.01) suppressed; also recorded: suppressed the production of mucins
- viscosity, elasticity and complex modulus (G*) of mucus (apical mucus secretions; 1 rad/s (ciliary frequency), 1 hour, p<0.05): dose-dependent decrease
- viscosity, elasticity and complex modulus (G*) of mucus (apical mucus secretions; 1 rad/s (ciliary frequency), 6 hours, p<0.01): dose-dependent decrease
- viscosity, elasticity and complex modulus (G*) of mucus (apical mucus secretions; 100 rad/s (corresponding to cough)): not significantly
- mucociliary clearance (mobility of cellular debris on culture surface) ([2]; 1 hr treatment, only 2 μg/ml statistically significant, little dose-response): appeared to increase the mobility of the cellular debris
- mucociliary clearance (movement of surface material) ([2]; 6 hr treatment, all three concentrations tested, strong trend to a dose response): significantly faster than the control
